From patent US11203610B2, “2′3′ cyclic dinucleotides with phosphonate bond activating the sting adaptor protein” (INSTITUTE OF ORGANIC CHEMISTRY AND BIOCHEMISTRY ASCR, V.V.I., priority 2017, dated 2021)

Experiments:
AQ STING (G230A-R293Q) = biological target: T1, AQ STING (G230A-R293Q) (Homo sapiens, UniProt Q86WV6, G230A/H232R/R293Q); assay: Differential Scanning Fluorimetry with AQ STING; type: binding; conditions: thermal shift vs STING apoprotein, 150 μM CDN, 0.1 mg/ml truncated human AQ STING, SYPRO Orange; for ΔTm at 150 µM: read-out: DSF ΔTm (° C.) AQ STING
T1 construct: truncated human WT STING or AQ STING (amino acid residues 140-343); 8xHis (N, cleaved yes); SUMO (N, cleaved yes); made in house; host or cells: E. coli Rosetta-gami B (DE3)

WT STING [1] = biological target: T2, WT STING (Homo sapiens, UniProt Q86WV6, H232R); assay: Digitonin assay using 293T wtSTING-FL reporter cells; type: cell-based; conditions: 293T wtSTING-FL cells; 30 minutes in Digitonin buffer, then 5 hours; ISRE firefly luciferase reporter; 8-point dose-response curve; read-out: Digitonin assay EC50 (μmol · l^−1) WT STING
Target sequence in this assay (Q86WV6 whole entry H232R, the tested form may be a part): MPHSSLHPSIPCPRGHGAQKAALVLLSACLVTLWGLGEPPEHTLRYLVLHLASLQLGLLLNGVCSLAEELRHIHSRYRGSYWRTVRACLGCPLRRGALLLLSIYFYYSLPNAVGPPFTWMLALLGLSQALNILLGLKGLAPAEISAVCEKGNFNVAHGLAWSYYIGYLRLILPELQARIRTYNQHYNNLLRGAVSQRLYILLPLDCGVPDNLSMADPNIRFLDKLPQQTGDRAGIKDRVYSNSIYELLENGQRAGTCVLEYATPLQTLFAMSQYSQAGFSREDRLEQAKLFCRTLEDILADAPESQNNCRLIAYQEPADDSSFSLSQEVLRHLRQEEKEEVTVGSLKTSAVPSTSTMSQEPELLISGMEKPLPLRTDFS

WT STING [2] = biological target: T2, WT STING; assay: Differential Scanning Fluorimetry with WT STING; type: binding; design: truncated human WT STING or AQ STING (amino acid residues 140-343); 8xHis (N, cleaved yes); SUMO (N, cleaved yes); made in house; host or cells: E. coli Rosetta-gami B (DE3); conditions: thermal shift vs STING apoprotein, 150 μM CDN, 0.1 mg/ml truncated human WT STING, SYPRO Orange; for ΔTm at 150 µM: read-out: DSF ΔTm (° C.) WT STING
Target sequence in this assay (Q86WV6 140-343 H232R): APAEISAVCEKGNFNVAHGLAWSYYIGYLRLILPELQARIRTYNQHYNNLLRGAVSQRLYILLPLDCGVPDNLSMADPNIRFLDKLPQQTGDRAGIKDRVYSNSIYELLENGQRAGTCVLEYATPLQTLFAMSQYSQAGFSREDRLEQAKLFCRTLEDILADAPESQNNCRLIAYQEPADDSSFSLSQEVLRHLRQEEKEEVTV

T1 sequence (Q86WV6 140-343 G230A/H232R/R293Q): as the sequence (Q86WV6 140-343 H232R) above, with G91A, R154Q counted along it

Row | Structure (SMILES) | DSF ΔTm (° C.) AQ STING (AQ STING (G230A-R293Q)) [°C] | EC50 (WT STING [1]) [nM] | DSF ΔTm (° C.) WT STING (WT STING [2]) [°C] | ΔTm at 150 µM (AQ STING (G230A-R293Q)) [°C] | ΔTm at 150 µM (WT STING [2]) [°C]
1 | Nc1nc2c(ncn2[C@@H]2O[C@@H]3COP(=O)(O)O[C@H]4[C@@H](O)[C@H](n5cnc6c(=O)[nH]c(N)nc65)O[C@@H]4COP(=O)(O)O[C@H]3[C@H]2O)c(=O)[nH]1 [3′3′c-di-GMP, reference compound] | 7.7 | 5800 | 2.6 |  | 
2 | Nc1nc2c(ncn2[C@@H]2O[C@@H]3COP(=O)(O)O[C@@H]4[C@H](O)[C@@H](COP(=O)(O)O[C@@H]2[C@@H]3O)O[C@H]4n2cnc3c(N)ncnc32)c(=O)[nH]1 [2′2′-cGAMP, reference compound] | 19.4 | 30 | 11.5 |  | 
3 | Nc1nc(N)c2ncn([C@@H]3O[C@@H]4COP(=O)(O)O[C@@H]5[C@H](O)[C@@H](OCP(=O)(O)O[C@H]4[C@H]3O)O[C@H]5n3cnc4c(=O)[nH]c(N)nc43)c2n1 [Compound 50, (1R,6R,8R,9R,10S,15R,17R,18S)-17-(2-amino-6-oxo-6,9-dihydro-1H-purin-9-yl)-8-(2,6-diamino-9H-purin-9-yl)-3,9,12,18-tetrahydroxy-2,4,7,11,14,16-hexaoxa-3λ^5,12λ^5-diphosphatricyclo[13.2.1.0^6,10]octadecane-3,12-dione] |  | 20 |  | 17.5 | 11.9
4 | Nc1nc2c(ncn2[C@@H]2O[C@@H]3OCP(=O)(O)O[C@H]4[C@H](O)[C@H](n5cnc6c(N)ncnc65)O[C@@H]4COP(=O)(O)OC2C3O)c(=O)[nH]1 (stereo partly drawn) [Compound 45, (6R,8R,9S,10S,15R,17R)-17-(2-amino-6-oxo-6,9-dihydro-1H-purin-9-yl)-8-(6-amino-9H-purin-9-yl)-3,9,12,18-tetrahydroxy-2,4,7,11,14,16-hexaoxa-3λ^5,12λ^5-diphosphatricyclo[13.2.1.0^6,10]octadecane-3,12-dione] |  | 10 |  | 25.3 | 18.7
5 | Nc1nc2c(ccn2[C@@H]2O[C@@H]3COP(=O)(O)O[C@@H]4[C@@H](OCP(=O)(O)O[C@@H]2[C@@H]3O)O[C@@H](n2cnc3c(N)ncnc32)[C@@H]4O)c(=O)[nH]1 [Compound 41, (1R,6R,8R,9R,10S,15R,17R,18R)-17-{2-amino-4-oxo-3H,4H,7H-pyrrolo[2,3-d]pyrimidin-7-yl}-8-(6-amino-9H-purin-9-yl)-3,9,12,18-tetrahydroxy-2,5,7,11,13,16-hexaoxa-3λ^5,12λ^5-diphosphatricyclo[13.2.1.0^6,10]octadecane-3,12-dione] |  | 1900 |  | 9.1 | 1.7
